“And” between values parts separate entries of the source, which are not always exact repeats. Equal entries are not always repeated.
Biological target: Adenosine A2A receptor (Homo sapiens, UniProt P29274)
Assay: cAMP assay in 293A cells stably expressing the adenosine A2A receptor (CGS21680 stimulation, HTRF)
Type: cell-based
Parameters: expressed in transfected cells; host or cells: 293A cells (Invitrogen, Cat# R705-07) infected with A2A-expressing lentivirus (custom packaged by Biosettia), puromycin selected
Settings: 293A cells stably expressing A2A receptor; 0.1% BSA; 1 uM CGS21680 stimulation; replicate values separated by /; read-out: cAMP (nM) 0.1% BSA, 1 uM CGS

Chain of Adenosine A2A receptor (P29274 whole entry): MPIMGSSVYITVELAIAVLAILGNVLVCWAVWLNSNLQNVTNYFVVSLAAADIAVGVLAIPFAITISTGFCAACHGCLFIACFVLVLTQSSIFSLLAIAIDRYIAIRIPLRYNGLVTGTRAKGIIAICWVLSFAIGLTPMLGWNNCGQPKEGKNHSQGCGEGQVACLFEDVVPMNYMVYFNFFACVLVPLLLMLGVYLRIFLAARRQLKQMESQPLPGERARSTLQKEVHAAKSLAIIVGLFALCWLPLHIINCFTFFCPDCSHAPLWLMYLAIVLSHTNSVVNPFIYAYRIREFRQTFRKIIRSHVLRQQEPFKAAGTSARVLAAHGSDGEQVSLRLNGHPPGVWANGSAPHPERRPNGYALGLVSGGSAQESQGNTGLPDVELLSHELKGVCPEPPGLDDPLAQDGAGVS

IC50	Structure (SMILES)
5930 nM and 9830 nM	Cc1cc(-c2c(OCc3cc(N4CCOCC4)cc(C(C)(C)O)n3)nc(N)nc2-c2ccc(F)cc2)cc(C(F)F)n1 [Example 424, 2-(6-(((2-amino-5-(2-(difluoromethyl)-6-methylpyridin-4-yl)-6-(4-fluorophenyl)pyrimidin-4-yl)oxy)methyl)-4-morpholinopyridin-2-yl)propan-2-ol]
5150 nM and 6010 nM	Cc1cc(-c2c(OCc3cc(C(C)(C)O)cc(-c4nnn(C)n4)n3)nc(N)nc2-c2ccc(F)cc2)cc(C(F)F)n1 [Example 427, 2-(2-(((2-amino-5-(2-(difluoromethyl)-6-methylpyridin-4-yl)-6-(4-fluorophenyl)pyrimidin-4-yl)oxy)methyl)-6-(2-methyl-2H-tetrazol-5-yl)pyridin-4-yl)propan-2-ol]
1260 nM	Cc1cc(-c2c(OCc3cccc(C(O)(CCO)CCO)n3)nc(N)nc2-c2ccc(F)cc2)cc(C(F)F)n1 [Example 432, 3-(6-(((2-amino-5-(2-(difluoromethyl)-6-methylpyridin-4-yl)-6-(4-fluorophenyl)pyrimidin-4-yl)oxy)methyl)pyridin-2-yl)pentane-1,3,5-triol]
1000 nM and 1470 nM and 1440 nM	Cc1cc(-c2c(OCc3cccc(C(C)(C)c4nn[nH]n4)n3)nc(N)nc2-c2ccc(F)cc2)cc(C(F)F)n1 [Example 400, 4-((6-(2-(2H-tetrazol-5-yl)propan-2-yl)pyridin-2-yl)methoxy)-5-(2-(difluoromethyl)-6-methylpyridin-4-yl)-6-(4-fluorophenyl)pyrimidin-2-amine]

Same assay, conditions: 293A-A2AR cells, 0.1% BSA, 8 nM CGS; values separated by / are repeat determinations; read-out: cAMP (nM) 0.1% BSA, 8 nM CGS

IC50	Structure (SMILES)
5.7 nM and 14 nM	CC(=O)Nc1ccc(CCOc2nc(N)nc(-c3ccccc3)c2-c2cc(C)nc(C(F)(F)F)c2)cc1 [Example 9, N-(4-(2-((2-amino-5-(2-methyl-6-(trifluoromethyl)pyridin-4-yl)-6-phenylpyrimidin-4-yl)oxy)ethyl)phenyl)acetamide]

Same assay, conditions: 293A-A2AR cells, 0.1% BSA, 1 uM CGS; read-out: cAMP (nM) 0.1% BSA, 1 uM CGS

IC50 [nM]	Structure (SMILES)
1360	Cc1cc(-c2c(OCc3cccc(N4CC(C)(O)C4)n3)nc(N)nc2-c2ccc(F)cc2)cc(C(F)F)n1 [Example 260, 1-(6-(((2-amino-5-(2-(difluoromethyl)-6-methylpyridin-4-yl)-6-(4-fluorophenyl)pyrimidin-4-yl)oxy)methyl)pyridin-2-yl)-3-methylazetidin-3-ol]
> 25000	Cc1cc(-c2c(OCc3cccc(N4CCC(C)(O)CC4)n3)nc(N)nc2-c2ccc(F)cc2)cc(C(F)F)n1 [Example 259, 1-(6-(((2-amino-5-(2-(difluoromethyl)-6-methylpyridin-4-yl)-6-(4-fluorophenyl)pyrimidin-4-yl)oxy)methyl)pyridin-2-yl)-4-methylpiperidin-4-ol]
4510	CCc1c(COc2nc(N)nc(-c3ccc(F)cc3)c2-c2cc(C)nc(C(F)F)c2)nnn1CC(=O)O [Example 232, 2-(4-(((2-amino-5-(2-(difluoromethyl)-6-methylpyridin-4-yl)-6-(4-fluorophenyl)pyrimidin-4-yl)oxy)methyl)-5-ethyl-1H-1,2,3-triazol-1-yl)acetic acid]
1080	CCc1nn(C[C@H](O)CO)nc1COc1nc(N)nc(-c2ccc(F)cc2)c1-c1cc(C)nc(C(F)F)c1 [Example 316, (S)-3-(4-(((2-amino-5-(2-(difluoromethyl)-6-methylpyridin-4-yl)-6-(4-fluorophenyl)pyrimidin-4-yl)oxy)methyl)-5-ethyl-2H-1,2,3-triazol-2-yl)propane-1,2-diol]
3990	Cc1cc(-c2c(OCc3cc4c(s3)CCCC4)nc(N)nc2-c2ccc(F)cc2)cc(C(F)F)n1 [Example 346, 5-(2-(difluoromethyl)-6-methylpyridin-4-yl)-4-(4-fluorophenyl)-6-((4,5,6,7-tetrahydrobenzo[b]thiophen-2-yl)methoxy)pyrimidin-2-amine]
> 25000	Cc1cc(-c2c(OCCOc3ncccc3C(=O)O)nc(N)nc2-c2ccc(F)cc2)cc(C(F)F)n1 [Example 337, 2-(2-((2-amino-5-(2-(difluoromethyl)-6-methylpyridin-4-yl)-6-(4-fluorophenyl)pyrimidin-4-yl)oxy)ethoxy)nicotinic acid]
2080	CCc1nn(CC(C)(C)C#N)nc1COc1nc(N)nc(-c2ccc(F)cc2)c1-c1cc(C)nc(C(F)F)c1 [Example 324, 3-(4-(((2-amino-5-(2-(difluoromethyl)-6-methylpyridin-4-yl)-6-(4-fluorophenyl)pyrimidin-4-yl)oxy)methyl)-5-ethyl-2H-1,2,3-triazol-2-yl)-2,2-dimethylpropanenitrile]
2290	CCc1nn(CC(O)COC)nc1COc1nc(N)nc(-c2ccc(F)cc2)c1-c1cc(C)nc(C(F)F)c1 (stereo not drawn) [Example 321, 1-(4-(((2-amino-5-(2-(difluoromethyl)-6-methylpyridin-4-yl)-6-(4-fluorophenyl)pyrimidin-4-yl)oxy)methyl)-5-ethyl-2H-1,2,3-triazol-2-yl)-3-methoxypropan-2-ol]
2550	CCn1[nH]c(=O)cc1COc1nc(N)nc(-c2ccc(F)cc2)c1-c1cc(C)nc(C(F)F)c1 [Example 330, 5-(((2-amino-5-(2-(difluoromethyl)-6-methylpyridin-4-yl)-6-(4-fluorophenyl)pyrimidin-4-yl)oxy)methyl)-1-ethyl-1,2-dihydro-3H-pyrazol-3-one]
1340	Cc1cc(-c2c(OCc3cc4ccccc4s3)nc(N)nc2-c2ccc(F)cc2)cc(C(F)F)n1 [Example 343, 4-(benzo[b]thiophen-2-ylmethoxy)-5-(2-(difluoromethyl)-6-methylpyridin-4-yl)-6-(4-fluorophenyl)pyrimidin-2-amine]
> 25000	Cc1cc(-c2c(OCc3nc4cc(C(C)(C)C(=O)O)ccc4n3C)nc(N)nc2-c2ccc(F)cc2)cc(C(F)F)n1 [Example 369, 2-(2-(((2-amino-5-(2-(difluoromethyl)-6-methylpyridin-4-yl)-6-(4-fluorophenyl)pyrimidin-4-yl)oxy)methyl)-1-methyl-1H-benzo[d]imidazol-5-yl)-2-methylpropanoic acid]
4080	CCn1c(COc2nc(N)nc(-c3ccc(F)cc3)c2-c2cc(C)nc(C(F)F)c2)n[nH]c1=O [Example 340, 5-(((2-amino-5-(2-(difluoromethyl)-6-methylpyridin-4-yl)-6-(4-fluorophenyl)pyrimidin-4-yl)oxy)methyl)-4-ethyl-2,4-dihydro-3H-1,2,4-triazol-3-one]
> 25000	Cc1cc(-c2c(OCC3CC(C(=O)O)C3)nc(N)nc2-c2ccc(F)cc2)cc(C(F)F)n1 (stereo not drawn) [Example 325, 3-(((2-amino-5-(2-(difluoromethyl)-6-methylpyridin-4-yl)-6-(4-fluorophenyl)pyrimidin-4-yl)oxy)methyl)cyclobutane-1-carboxylic acid]
19700	Cc1cc(-c2c(OCc3cccc(N4CCC[C@@H]4C(=O)O)n3)nc(N)nc2-c2ccc(F)cc2)cc(C(F)F)n1 [Example 294, (6-(((2-amino-5-(2-(difluoromethyl)-6-methylpyridin-4-yl)-6-(4-fluorophenyl)pyrimidin-4-yl)oxy)methyl)pyridin-2-yl)-D-proline]
8570	Cc1cc(-c2c(OCCC(C)(C)C(=O)O)nc(N)nc2-c2cccc(C#N)c2C)cc(C(F)F)n1 [Example 250, 4-((2-amino-6-(3-cyano-2-methylphenyl)-5-(2-(difluoromethyl)-6-methylpyridin-4-yl)pyrimidin-4-yl)oxy)-2,2-dimethylbutanoic acid]
23500	CCc1nn(CC)nc1COc1nc(N)nc(-c2cccc(C#N)c2C)c1-c1cc(C)nc(C(F)F)c1 [Example 254, 3-(2-amino-6-((2,5-diethyl-2H-1,2,3-triazol-4-yl)methoxy)-5-(2-(difluoromethyl)-6-methylpyridin-4-yl)pyrimidin-4-yl)-2-methylbenzonitrile]
> 50000	Cc1cc(-c2c(OCc3ncc(C(C)(O)C(=O)O)n3C)nc(N)nc2-c2ccc(F)cc2)cc(C(F)F)n1 (stereo not drawn) [Example 395, 2-(2-(((2-amino-5-(2-(difluoromethyl)-6-methylpyridin-4-yl)-6-(4-fluorophenyl)pyrimidin-4-yl)oxy)methyl)-1-methyl-1H-imidazol-5-yl)-2-hydroxypropanoic acid]
1800	Cc1cc(-c2c(OCc3ccncc3)nc(N)nc2-c2ccc(F)cc2)cc(C(F)F)n1 [Example 286, 5-(2-(difluoromethyl)-6-methylpyridin-4-yl)-4-(4-fluorophenyl)-6-(pyridin-4-ylmethoxy)pyrimidin-2-amine]
16300	Cc1cc(-c2c(OCc3cn(C(C)(C)C(=O)O)cn3)nc(N)nc2-c2ccc(F)cc2)cc(C(F)F)n1 [Example 387, 2-(4-(((2-amino-5-(2-(difluoromethyl)-6-methylpyridin-4-yl)-6-(4-fluorophenyl)pyrimidin-4-yl)oxy)methyl)-1H-imidazol-1-yl)-2-methylpropanoic acid]
265	Cc1cc(-c2c(OCCCCO)nc(N)nc2-c2ccc(F)cc2)cc(C(F)F)n1 [Example 245, 4-((2-amino-5-(2-(difluoromethyl)-6-methylpyridin-4-yl)-6-(4-fluorophenyl)pyrimidin-4-yl)oxy)butan-1-ol]
2390	Cc1cc(-c2c(OCc3ccn(CC(C)(C)O)n3)nc(N)nc2-c2ccc(F)cc2)cc(C(F)F)n1 [Example 258, 1-(3-(((2-amino-5-(2-(difluoromethyl)-6-methylpyridin-4-yl)-6-(4-fluorophenyl)pyrimidin-4-yl)oxy)methyl)-1H-pyrazol-1-yl)-2-methylpropan-2-ol]
1420	Cc1cc(-c2c(NCc3cccc(C(C)(C)C#N)n3)nc(N)nc2-c2ccc(F)cc2)cc(C(F)F)n1 [Example 356, 2-(6-(((2-amino-5-(2-(difluoromethyl)-6-methylpyridin-4-yl)-6-(4-fluorophenyl)pyrimidin-4-yl)amino)methyl)pyridin-2-yl)-2-methylpropanenitrile]
